The text below walks through data of patent US20230399341A1, “7-PHENYL SUBSTITUTED 2-AMINOQUINAZOLINE INHIBITORS OF HPK1” (MERCK SHARP & DOHME LLC, priority 2020, published 2023).

SMILES strings stand for the structures.

This assay addresses T1, Human HPK1, catalytic domain (Homo sapiens, UniProt Q92918).
T1 sequence (Q92918 1-346): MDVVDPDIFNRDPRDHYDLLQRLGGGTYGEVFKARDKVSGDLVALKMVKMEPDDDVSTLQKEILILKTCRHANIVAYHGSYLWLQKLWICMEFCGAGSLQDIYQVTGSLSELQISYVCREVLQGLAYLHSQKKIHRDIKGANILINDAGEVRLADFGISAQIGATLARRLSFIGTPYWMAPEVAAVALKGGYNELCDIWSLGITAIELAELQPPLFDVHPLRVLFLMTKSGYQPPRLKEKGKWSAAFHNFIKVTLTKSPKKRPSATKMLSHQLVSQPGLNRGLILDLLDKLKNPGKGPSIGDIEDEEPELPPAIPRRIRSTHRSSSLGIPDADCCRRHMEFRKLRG
The assay is described as follows: HPK1-SLP76 TR-FRET Assay. The format is biochemical. The note with it: 75 pM HPK1, ATP 10 uM, SLP76 10 nM, 30 min pre-incubation, 60 min reaction. Background: TR-FRET usually uses a lanthanide donor and a delayed reading to cut background.

As to `Cc1c(-c2cc3nc(Nc4ccc5c(c4)CN(C)CC5)ncc3c(N)c2F)cnc2c1NCCO2` [Compound 2-70, 6-fluoro-7-(8-methyl-2,3-dihydro-1H-pyrido[2,3-b][1,4]oxazin-7-yl)-N˜2˜-(2-methyl-1,2,3,4-tetrahydroisoquinolin-7-yl)quinazoline-2,5-diamine], the midpoint of inhibition, the IC50, lay at 0.0508 nM.
`COc1cc2c(cc1Nc1ncc3c(N)c(F)c(-c4ccc(-c5ncco5)cc4C)cc3n1)CN(C)CC2` [Compound 2-60, 6-fluoro-N~2~-(6-methoxy-2-methyl-1,2,3,4-tetrahydroisoquinolin-7-yl)-7-[2-methyl-4-(1,3-oxazol-2-yl)phenyl]quinazoline-2,5-diamine]: the IC50 (as a rule, the point on the concentration scale where inhibition reaches its midpoint) amounted to 469 nM.
The value for `COc1cc2c(cc1Nc1ncc3ccc(NCC4CCS(=O)(=O)C4)cc3n1)CN(C)CC2` (racemic) [Compound 3-37, (S and R)-3-1({2-[(6-methoxy-2-methyl-1,2,3,4-tetrahydroiso-quinolin-7-yl)amino]quinazolin-7-yl}amino)methyl]-1lambda~ 6~-thiolane-1,1-dione] was 73.1 nM; that for `COc1ccc(CC#N)cc1Nc1ncc2c(N)c(F)c(-c3cnc4c(c3C)NCCO4)cc2n1` [Compound 2-5, (3-{[5-amino-6-fluoro-7-(8-methyl-2,3-dihydro-1H-pyrido[2,3-b][1,4]oxazin-7-yl)quinazolin-2-yl]amino}-4-methoxyphenyl)acetonitrile] was 270 nM.
The value for `CCS(=O)(=O)Cc1ccc(Nc2ncc3c(N)c(F)c(-c4cnc5c(c4C)NCC(C)O5)cc3n2)c(F)c1` (single isomer, unassigned) [Compound 2-125, (R or S)-7-(3,8-dimethyl-2,3-dihydro-1H-pyrido[2,3-b][1,4]oxazin-7-yl)-N2-(4-((ethylsulfonyl)methyl)-2-fluorophenyl)-6-fluoroquinazoline-2,5-diamine] was 0.105 nM; that for `Cc1c(-c2cc3nc(Nc4ccc5c(c4)CN(CC(C)(C)O)C5=O)ncc3cc2F)cnc2c1NCCO2` [Compound 1-111, 5-{[6-fluoro-7-(8-methyl-2,3-dihydro-1H-pyrido[2,3-b][1,4]oxazin-7-yl)quinazolin-2-yl]amino}-2-(2-hydroxy-2-methylpropyl)-2,3-dihydro-1H-isoindol-1-one] was 0.766 nM; that for `COc1cc2c(cc1Nc1ncc3ccc(Oc4cn[nH]c4)cc3n1)CN(C)CC2` [Compound 4-5, N-(6-methoxy-2-methyl-1,2,3,4-tetrahydroisoquin-olin-7-yl)-7-[(1H-pyrazol-4-yl)oxy]quinazolin-2-amine] was 258 nM.
Under `COc1cc2c(cc1Nc1ncc3ccc(-c4cncc(C(C)(C)O)c4)cc3n1)CN(C)CC2` [Compound 1-14, 2-(5-{2-[(6-methoxy-2-methyl-1,2,3,4-tetrahydroisoquinolin-7-yl)amino]quinazolin-7-yl}pyridin-3-yl)propan-2-ol] stands 55.3 nM.
Molecule `Cc1c(-c2c(F)c(N)c3cnc(Nc4ccc(CS(=O)(=O)C5CC5)cc4)nc3c2Cl)cnc2c1NCCO2` [Compound 2-132, 8-chloro-N2-(4-((cyclopropylsulfonyl)methyl)phenyl)-6-fluoro-7-(8-methyl-2,3-dihydro-1H-pyrido[2,3-b][1,4]oxazin-7-yl)quinazoline-2,5-diamine] had an IC50 of 2.78 nM.
The value for `COc1cc2c(cc1Nc1ncc3ccc(-c4ccc(C(F)(F)C(N)=O)nc4)cc3n1)CN(C)CC2` [Compound 1-12, 2,2-difluoro-2-(5-{2-[(6-methoxy-2-methyl-1,2,3,4-tetrahydroisoquinolin-7-yl)amino]quinazolin-7-yl}pyridin-2-yl)acetamide] was 341 nM.
The value for `Cc1c(-c2cc3nc(Nc4ccc(C(C)S(C)(=O)=O)cc4)ncc3cc2F)cnc2c1NCCO2` (single isomer, unassigned) [Compound 1-124, (R or S)-6-fluoro-7-(8-methyl-2,3-dihydro-1H-pyrido[2,3-b][1,4]oxazin-7-yl)-N-{4-[1-(methylsulfonyl)ethyl]phenyl} quinazolin-2-amine] was 0.0411 nM; that for `COc1cc2c(cc1Nc1ncc3c(N)c(F)c(-c4cnc5c(c4C)NCCO5)cc3n1)CCN(C)C2` [Compound 2-88, 6-fluoro-N2-(7-methoxy-2-methyl-1,2,3,4-tetrahydroisoquinolin-6-yl)-7-(8-methyl-2,3-dihydro-1H-pyrido[2,3-b][1,4]oxazin-7-yl)quinazoline-2,5-diamine] was 0.377 nM.
`COc1cc2c(cc1Nc1ncc3ccc(-c4ccc(N)nc4)cc3n1)CNCC2` [Compound 1-27, 7-(6-aminopyridin-3-yl)-N-(6-methoxy-1,2,3,4-tetrahydroisoquinolin-7-yl)quinazolin-2-amine] returned an IC50 of 9.91 nM. Against the preceding molecule, the IC50 is about 26-fold higher.
In turn, `Cc1c(-c2cc3nc(Nc4ccc(N5CCOC5=O)cc4)ncc3c(N)c2F)cnc2c1NCCO2` [Compound 2-67, 3-(4-{[5-amino-6-fluoro-7-(8-methyl-2,3-dihydro-1H-pyrido[2,3-b][1,4]oxazin-7-yl)quinazolin-2-yl]amino}phenyl)-1,3-oxazolidin-2-one] had an IC50 of 0.0508 nM.
The value for `Cc1c(-c2cc3nc(Nc4cc5c(cc4F)CCN(C)C5)ncc3c(N)c2F)cnc2c1NCCO2` [Compound 2-59, 6-fluoro-N~2~-(6-fluoro-2-methyl-1,2,3,4-tetrahydroisoquinolin-7-yl)-7-(8-methyl-2,3-dihydro-1H-pyrido[2,3-b][1,4]oxazin-7-yl)quinazoline-2,5-diamine] was 0.0508 nM; that for `COc1cc2c(cc1Nc1ncc3ccc(-c4cccc5c4CCNC5)cc3n1)CN(C)CC2` [Compound 1-6, N-(6-methoxy-2-methyl-1,2,3,4-tetrahydroisoquinolin-7-yl)-7-(1,2,3,4-tetrahydroisoquinolin-5-yl)quinazolin-2-amine] was 92.2 nM; that for `COc1c(Nc2ncc3c(N)c(F)c(-c4cnc5c(c4C)NCCO5)cc3n2)ccc2c1CCNC(=O)C2` [Compound 2-21] was 487 nM.
In turn, `COc1cc2c(cc1Nc1ncc3c(N)c(F)c(-c4cnc5c(c4C)NCCO5)c(Cl)c3n1)CN(C)CC21CC1` [Compound 2-169, 8-chloro-6-fluoro-N~2~- (6′-methoxy-2′-methyl-2′,3′-dihydro-1′H-spiro[cyclopropane-1,4′-isoquinolin]-7′-yl)-7-(8-methyl-2,3-dihydro-1H-pyrido[2,3-b][1,4]oxazin-7-yl)quinazoline-2,5-diamine] had an IC50 of 4.97 nM.
Under `Cc1c(-c2c(F)c(N)c3cnc(Nc4ccc(N5CCOC5=O)cc4)nc3c2Cl)cnc2c1NCCO2` [Compound 2-159] stands 47 nM.
The molecule `COc1cc2c(cc1Nc1ncc3c(N)c(F)c(-c4cc(C#N)ccc4C)cc3n1)CN(C)CC2` [Compound 2-51, 3-(5-amino-6-fluoro-2-((6-methoxy-2-methyl-1,2,3,4-tetrahydroisoquinolin-7-yl)amino)quinazolin-7-yl)-4-methylbenzonitrile] displayed an IC50 of 474 nM.
In turn, `Cc1c(-c2cc3nc(Nc4ccc5c(c4)CN(C)CC54CC4)ncc3c(N)c2F)cnc2c1NCCO2` [Compound 2-73, 6-fluoro-7-(8-methyl-2,3-dihydro-1H-pyrido[2,3-b][1,4]oxazin-7-yl)-N~2~- (2′-methyl-2′,3′-dihydro-1′H-spiro[cyclopropane-1,4′-isoquinolin]-7′-yl)quinazoline-2,5-diamine] returned an IC50 of 0.0508 nM.
